Laboratory results published in US20090118253A1, “COMPOSITIONS AND METHODS FOR TREATING DYSFUNCTIONAL UTERINE BLEEDING” (REPROS THERAPEUTICS INC., priority 2007, published 2009).

Legend:
[1] = test system: rabbit progesterone receptor (rbPR) and glucocorticoid receptor (rbGR); experiment: Receptor-binding assays, ratio of relative binding affinities rbPR/rbGR; conditions: ratio of relative binding affinities (RBA = EC50 of standard/EC50 of test compound x 100) for rbPR and rbGR
Experimental: Certain antiprogestins were tested in receptor-binding assays for their ability to bind rabbit progesterone receptor (rbPR) and glucocorticoid receptor (rbGR). Briefly, cytosol containing PR or GR were prepared in TEGMD buffer (10 mM Tris, pH 7.2, 1.5 mM EDTA, 0.2 mM sodium molybdate, 10% glycerol, 1 mM DTT) from uterus or thymus, respectively, of estradiol-primed immature rabbits. For PR binding, the cytosol was incubated with 6 nM 1,2-[^3H]progesterone (50.0 Ci/mmole) and competitors were added at concentrations from 2 to 100 nM. For binding to GR, the cytosol was incubated with 6 nM 6,7-[^3H]-dexamethasone (40 Ci/mmol) and test compounds were added at concentrations from 20 to 100 nM. After overnight incubation at 4 C, bound and unbound [^3H] steroids were separated by addition of dextran-coated charcoal and centrifugation at 2100×g for 15 min at 4 C. Supernatants containing the [3H]-steroid receptor complexes were decanted into vials containing 4 ml Optifluor (Packard Instrument Co.), vortexed, equilibrated in a liquid scintillation counter for 30 minutes and then counted for 2 minutes. The EC50 (Effective Concentration) for each standard curve and each of the compound curves was determined by entering the counting data into a four parameter sigmoidal computer program (RiaSmart® Immunoassay Data Reduction Program, Packard Instrument Co., Meriden, Conn.). Relative binding affinity (RBA) for each compound was calculated using the following equation: EC50 of standard/EC50 of test compound×100. The standards for the PR and GR assays were unlabeled progesterone and dexamethasone, respectively. The results of these experiments are summarized in Table 1, as a ratio of the relative binding affinities of each compound for the rbPR and rbGR receptors (rbPR/rbGR).

[2] = test system: progesterone-induced endometrial glandular proliferation in rabbit uterus; experiment: anti-McGinty and anti-Clauberg assays in the rabbit uterus; assay type: in vivo; conditions: average of anti-McGinty and anti-Clauberg results relative to CDB-2914 (=1.00)
From the text: Also given in Table 1 are the relative biological activities of the same compounds in the rabbit uterus by the anti-McGinty and anti-Clauberg assays. Compound CDB-2914 (listed at the end of the Table) was used as the control or reference compound (rabbit Biological Activity=1.00) for these experiments because results of experiments using CDB-2914 have been published before (Hild-Petito et al., 1996; Passaro et al., 1997; Reel et al., 1998; Lamer et al., 2000). For the anti-McGinty test, immature female rabbits received a subcutaneous injection of 5 μg estradiol in 10% ethanol/sesame oil daily for 6 consecutive days. On day 7, animals underwent sterile abdominal surgery to ligate a 3-4 cm segment of both uterine horns. The test compound in appropriate solvent was injected intraluminally into the ligated segment of one uterine horn and vehicle alone into the other. A stimulating dose of progesterone (267 μg/day) was administered subcutaneously to each rabbit daily for the next three days to induce endometrial proliferation. All animals were sacrificed at day 10 for removal of the uterus where a segment central to the ligatures was removed and fixed in 10% neutral buffered formalin and submitted for histological processing. Five micron sections stained with hematoxylin and cosin were evaluated microscopically for the degree of endometrial glandular proliferation. The percent inhibition of endometrial proliferation for each rabbit was calculated and the mean of the group of five animals recorded. For the Anti-Clauberg test, immature female rabbits received a subcutaneous injection of 5 μg estradiol in 10% ethanol/sesame oil daily for 6 consecutive days. On day 7, animals received progesterone by subcutaneous injection (160 μg/day) and the experimental compound in appropriate vehicle orally or subcutaneously for five consecutive days. One group of rabbits received progesterone only. Twenty-four hours after the last dose, all animals were sacrificed for removal of the uterus which was cleaned of all fat and connective tissue, weighed to the nearest 0.2 mg and placed in 10% neutral buffered formalin for subsequent histological processing. Five micron sections stained with hematoxylin and eosin were evaluated microscopically for the degree of endometrial glandular proliferation. The percent inhibition of endometrial proliferation at each dose level of the test compound was derived by comparison with progesterone-stimulated animals alone. The data presented in Table 1 (rabbit Biol. Act.) reflects the average of the results obtained for each compound by the anti-McGinty and anti-Clauberg assays relative to CDB-2914.

For “2 11-(Cyp*-hydroxy)-17α-acetoxy-11β-(4 N,N-dimethylaminophenyl)-19-norpregna-4,9-diene-3,20-dione [CDB-4125]”, the rbPR/rbGR [1] was 1.19 and the “rabbit Biol. Act.” value [2] was 1.55.
In the case of “21-BMD-17α-acetoxy-11β-(4 N,N-dimethylaminophenyl)-19-norpregna-4,9-diene-3,20-dione [CDB-4111]”, the rbPR/rbGR [1] is reported as 1.30 and the “rabbit Biol. Act.” value [2] is reported as 0.36.
In the case of “21-methoxyacetyl-17α-acetoxy-11β-(4 N,N-dimethylaminophenyl)-19-norpregna-4,9-diene-3,20-dione [CDB-4362]”, the rbPR/rbGR [1] is reported as 4.74 and the “rabbit Biol. Act.” value [2] is reported as 1.25.
`CCC(=O)[C@@]1(OC(C)=O)CCC2C3CCC4=CC(=O)CCC4=C3C(c3ccc(N(C)C)cc3)C[C@@]21C` (stereo partly drawn) [CDB-4030, 21-methyl-17α-acetoxy-11β-(4 N,N-dimethylaminophenyl)-19-norpregna-4,9-diene-3,20-dione] was tested, and the rbPR/rbGR [1] was 0.96 and the “rabbit Biol. Act.” value [2] was 0.30.
For `CC(=O)O[C@]1(C(=O)CBr)CCC2C3CCC4=CC(=O)CCC4=C3C(c3ccc(N(C)C)cc3)C[C@@]21C` (stereo partly drawn) [CDB-4031, 21-bromine-17α-acetoxy-11β-(4 N,N-dimethylaminophenyl)-19-norpregna-4,9-diene-3,20-dione], the rbPR/rbGR [1] was 0.69 and the “rabbit Biol. Act.” value [2] was 0.70.
In the case of `CC(=O)O[C@]1(C(=O)CF)CCC2C3CCC4=CC(=O)CCC4=C3C(c3ccc(N(C)C)cc3)C[C@@]21C` (stereo partly drawn) [CDB-4058, 21-flourine-17α-acetoxy-11β-(4 N,N-dimethylaminophenyl)-19-norpregna-4,9-diene-3,20-dione], the rbPR/rbGR [1] is reported as 1.08 and the “rabbit Biol. Act.” value [2] is reported as 0.90.
In the case of `CC(=O)O[C@]1(C(=O)C[S+](C)[O-])CCC2C3CCC4=CC(=O)CCC4=C3C(c3ccc(N(C)C)cc3)C[C@@]21C` (stereo partly drawn) [CDB-4101, 21-methoxythio-17α-acetoxy-11β-(4 N,N-dimethylaminophenyl)-19-norpregna-4,9-diene-3,20-dione], the rbPR/rbGR [1] is reported as 0.61 and the “rabbit Biol. Act.” value [2] is reported as 0.65.
In the case of `CC(=O)O[C@]1(C2COC(C)(C)O2)CCC2C3CCC4=CC(=O)CCC4=C3C(c3ccc(N(C)C)cc3)C[C@@]21C` (stereo partly drawn) [CDB-4110, 21-acetonide-17α-acetoxy-11β-(4 N,N-dimethylaminophenyl)-19-norpregna-4,9-diene-3,20-dione], the rbPR/rbGR [1] is reported as 0.70 and the “rabbit Biol. Act.” value [2] is reported as 0.10.
With `CC(=O)O[C@]1(C(=O)CSC(C)=O)CCC2C3CCC4=C(C(=O)c5ccccc5)C(=O)CCC4=C3C(c3ccc(N(C)C)cc3)C[C@@]21C` (stereo partly drawn) [CDB-4119, 4-benzoin-21-acetylthio-17α-acetoxy-11β-(4 N,N-dimethylaminophenyl)-19-norpregna-4,9-diene-3,20-dione] the rbPR/rbGR [1] was 2.60 and the “rabbit Biol. Act.” value [2] was 0.10.
`CC(=O)O[C@]1(C(=O)CO)CCC2C3CCC4=CC(=O)CCC4=C3C(c3ccc(N(C)C)cc3)C[C@@]21C` (stereo partly drawn) [CDB-4152, 21-hydroxy-17α-acetoxy-11β-(4 N,N-dimethylaminophenyl)-19-norpregna-4,9-diene-3,20-dione] was tested, and the rbPR/rbGR [1] was 0.82 and the “rabbit Biol. Act.” value [2] was 1.40.
`CCOCC(=O)[C@@]1(OC(C)=O)CCC2C3CCC4=CC(=O)CCC4=C3C(c3ccc(N(C)C)cc3)C[C@@]21C` (stereo partly drawn) [CDB-4167, 21-ethyloxy-17α-acetoxy-11β-(4 N,N-dimethylaminophenyl)-19-norpregna-4,9-diene-3,20-dione] was tested, and the rbPR/rbGR [1] was 1.69 and the “rabbit Biol. Act.” value [2] was 1.50.
For `COCC(=O)C1(OC(C)=O)CCC2C3CCC4=CC(=NO)CCC4=C3C(c3ccc(N(C)C)cc3)C[C@@]21C` (stereo partly drawn) [CDB-4205, 3-hydroxyamino-2 1-methoxy-17α-acetoxy-11β-(4 N,N-dimethylaminophenyl)-19-norpregna-4,9-diene-3,20-dione], the rbPR/rbGR [1] was 1.99 and the “rabbit Biol. Act.” value [2] was 1.00.
`CC(=O)OCC(=O)C1(OC(C)=O)CCC2C3CCC4=CC(=NO)CCC4=C3C(c3ccc(N(C)C)cc3)C[C@@]21C` (stereo partly drawn) [CDB-4206, 3-hydroxyamino-21-acetoxy-17α-acetoxy-11β-(4 N,N-dimethylaminophenyl)-19-norpregna-4,9-diene-3,20-dione] was tested, and the rbPR/rbGR [1] was 1.44 and the “rabbit Biol. Act.” value [2] was 0.68.
With `CSCC(=O)[C@@]1(OC(C)=O)CCC2C3CCC4=CC(=O)CCC4=C3C(c3ccc(N(C)C)cc3)C[C@@]21C` (stereo partly drawn) [CDB-4223, 21-methylthio-17α-acetoxy-11β-(4 N,N-dimethylaminophenyl)-19-norpregna-4,9-diene-3,20-dione] the rbPR/rbGR [1] was 1.17.
With `CCOCC(=O)C1(OC(C)=O)CCC2C3CCC4=CC(=NO)CCC4=C3C(c3ccc(N(C)C)cc3)C[C@@]21C` (stereo partly drawn) [CDB-4226, 3-hydroxyamino-21-ethyloxy-17α-acetoxy-11β-(4 N,N-dimethylaminophenyl)-19-norpregna-4,9-diene-3,20-dione] the rbPR/rbGR [1] was 1.51 and the “rabbit Biol. Act.” value [2] was 0.54.
For `COCC(=O)[C@@]1(OC(C)=O)CCC2C3CCC4=C(C(=O)c5ccccc5)C(=O)CCC4=C3C(c3ccc(N(C)C)cc3)C[C@@]21C` (stereo partly drawn) [CDB-4239, 4-benzoin-21-methoxy-17α-acetoxy-11β-(4 N,N-dimethylaminophenyl)-19-norpregna-4,9-diene-3,20-dione], the rbPR/rbGR [1] was 14.80 and the “rabbit Biol. Act.” value [2] was 0.60.
With `CCC(=O)OCC(=O)[C@@]1(OC(C)=O)CCC2C3CCC4=CC(=O)CCC4=C3C(c3ccc(N(C)C)cc3)C[C@@]21C` (stereo partly drawn) [CDB-4247, 21-propio[1]nyloxy-17α-acetoxy-1 1β-(4 N,N-dimethylaminophenyl)-19-norpregna-4,9-diene-3,20-dione] the rbPR/rbGR [1] was 2.06 and the “rabbit Biol. Act.” value [2] was 1.70.
`CC(=O)O[C@]1(C(=O)COC(=O)CN)CCC2C3CCC4=CC(=O)CCC4=C3C(c3ccc(N(C)C)cc3)C[C@@]21C` (stereo partly drawn) [CDB-4306, 21-glycinate-17α-acetoxy-11β-(4 N,N-dimethylaminophenyl)-19-norpregna-4,9-diene-3,20-dione] was tested, and the rbPR/rbGR [1] was 5.90 and the “rabbit Biol. Act.” value [2] was 0.95.
With `CC(=O)O[C@]1(C(=O)CSC#N)CCC2C3CCC4=CC(=O)CCC4=C3C(c3ccc(N(C)C)cc3)C[C@@]21C` (stereo partly drawn) [CDB-4352, 21-cyanothio-17α-acetoxy-11β-(4 N,N-dimethylaminophenyl)-19 norpregna-4,9-diene-3,20-dione] the rbPR/rbGR [1] was 4.21 and the “rabbit Biol. Act.” value [2] was 0.57.
With `C=COCC(=O)[C@@]1(OC(C)=O)CCC2C3CCC4=CC(=O)CCC4=C3C(c3ccc(N(C)C)cc3)C[C@@]21C` (stereo partly drawn) [CDB-4361, 21-vinyl ether-17α-acetoxy-11β-(4 N,N-dimethylaminophenyl)-19-norpregna-4,9-diene-3,20-dione] the rbPR/rbGR [1] was 7.20 and the “rabbit Biol. Act.” value [2] was 3.03.
